Experimental data published in PubChem BioAssay (NCI).
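Each compound was tested at five concentrations against cells in 96-well plates for 48 hours. The concentration for 50% growth inhibition is given as GI50. The concentration for full growth arrest is given as TGI.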

How the values were obtained:
Assay in all cases: NCI-60 cell line screen, 48 h
[1] = test system: RPMI-8226 leukemia
[2] = test system: U251 CNS
[3] = test system: UACC-257 melanoma
[4] = test system: A498 renal
[5] = test system: OVCAR-4 ovarian
[6] = test system: SK-MEL-28 melanoma
[7] = test system: A549 NSCLC
[8] = test system: SN12C renal
[9] = test system: OVCAR-5 ovarian
[10] = test system: HCT-15 colon
[11] = test system: HCT-116 colon
[12] = test system: HL-60(TB) leukemia

Compound	TGI [1] [µM]	TGI [2] [µM]	TGI [3] [µM]	TGI [4] [µM]	TGI [5] [µM]	TGI [6] [µM]	TGI [7] [µM]	TGI [8] [µM]	TGI [9] [µM]	TGI [10] [µM]	TGI [11] [µM]	TGI [12] [µM]	GI50 [4] [µM]	GI50 [5] [µM]	GI50 [9] [nM]	GI50 [3] [nM]	GI50 [6] [nM]	GI50 [8] [nM]	GI50 [10] [nM]	GI50 [12] [µM]
Cc1nc(Nc2ccc(F)cc2)c2sc(=S)n(-c3ccc(F)cc3)c2n1	21.9	27.8	26.2	33.4	40.8	27.8	29.5	27	36.3	13.8	15	74.1	–	–	–	–	–	–	–	–
Nc1ccc(C2NC(=O)Cc3c2ccc2ccccc32)cc1 (stereo not given)	> 100	> 100	> 100	> 100	> 100	> 100	> 100	–	> 100	> 100	> 100	> 100	–	–	–	–	–	–	–	–
CCCCNc1c(CN)cnc2cc(Cl)ccc12	37	30.4	26.5	28.7	40.1	30	41.5	37.9	35.5	33.1	35.9	3.92	–	–	–	–	–	–	–	–
Nc1ccc2nc3ccc(N)cc3[n+](-c3ccccc3)c2c1	> 100	> 100	68	> 100	> 100	> 100	> 100	> 100	80.9	> 100	97.3	> 100	–	–	–	–	–	–	–	–
O=C(O)CSCC(=O)O	–	> 100	> 100	> 100	> 100	> 100	> 100	> 100	> 100	> 100	> 100	> 100	–	–	–	–	–	–	–	–
c1ccc(C(c2ccccc2)[P+](c2ccccc2)(c2ccccc2)c2ccccc2)cc1	1.28	12.1	3.17	8.62	10	5.18	14.6	11.7	13.3	17.9	5.02	4.05	–	–	–	–	–	–	–	–
CC(=O)Oc1ccc2c(C)cc(=O)oc2c1	> 100	> 100	> 100	> 100	> 100	> 100	> 100	> 100	> 100	> 100	> 100	> 100	–	–	–	–	–	–	–	–
Cc1ccc2cc3c(ccc4ccccc43)c3c2c1CC3	> 100	> 100	> 100	> 100	> 100	> 100	> 100	> 100	> 100	> 100	> 100	> 100	> 100	> 100	> 100000	–	–	–	–	–
COc1ccc2oc(=O)cc(C)c2c1	> 100	> 100	> 100	> 100	> 100	> 100	> 100	> 100	> 100	–	> 100	> 100	–	–	–	–	–	–	–	–
CS/C(=N\C(=S)Nc1ccccc1)Nc1ccccc1	62.1	> 100	–	81.5	> 100	> 100	59.2	67.6	77.3	58.1	–	39.2	–	–	–	–	–	–	–	–
N=C(N)C(N=Nc1ccccc1)C(N)=O (stereo not given)	> 100	> 100	> 100	> 100	> 100	> 100	> 100	> 100	> 100	> 100	> 100	> 100	–	–	–	–	–	–	–	–
FC(F)(F)C(C1=NC(C(F)(F)F)(C(F)(F)F)N=C(N2CCOCC2)O1)C(F)(F)F	57.7	> 100	75.3	–	66.1	52.4	62.8	36.1	46.4	> 100	> 100	22	–	–	–	–	–	–	–	–
COc1ccc(C2C(=O)C(Cl)N2Nc2nc(C)cc(=O)[nH]2)cc1OC (stereo not given)	55.9	> 100	> 100	–	> 100	> 100	> 100	94.2	> 100	> 100	> 100	37.6	–	–	–	–	–	–	–	–
C=CC(=O)N1CCN(c2nc(OC[C@@H]3CCCN3C)nc3c2CCN(c2cccc4cccc(C)c24)C3)C[C@@H]1CC#N	–	–	3.74	–	–	3.09	–	2.87	3.26	2.92	–	–	–	–	1580	1790	1710	1460	1450	–
NC(=O)NO	2260	2330	> 2500	1990	> 2500	> 2500	2340	2390	1990	2360	> 2500	182	–	–	–	–	–	–	–	21
COc1ccccc1N1C(Cl)C(=O)C1c1c[nH]c2ccccc12 (stereo not given)	> 100	> 100	> 100	–	> 100	> 100	> 100	> 100	> 100	–	> 100	> 100	–	–	–	–	–	–	–	–
O=C(O)C(O)Cc1ccccn1 (stereo not given)	> 100	> 100	> 100	> 100	> 100	> 100	> 100	–	> 100	> 100	–	> 100	–	–	–	–	–	–	–	–
CN(C)CCCNc1ncnc2nc[nH]c12	> 100	> 100	–	> 100	> 100	> 100	> 100	> 100	> 100	> 100	> 100	–	–	–	–	–	–	–	–	–
COc1cccc(Nc2nc(-c3cccs3)nc3ccc(Br)cc23)c1	> 100	> 100	> 100	> 100	–	–	> 100	> 100	> 100	> 100	> 100	> 100	–	–	–	–	–	–	–	–
